Experiments:
Type in all cases: physicochemical
[1] = Dynamic vapor sorption (DVS) scan; conditions: for water absorption (DVS scan): at 90% RH
From the text: The purity of the Form 13 sample was 98.8%; the KF of an undried Form 13 sample was 35.7%.

[2] = Heating in DSC chamber, then XRD scan (form conversion)
Method: The Form 1 solid was heated in a DSC chamber to 305° C. (past the endotherm/exotherm around 280° C.), and then scanned by XRD. […] Thus, the endotherm/exotherm around 280° C. might be due to melting/crystallization events.
The Form 2 solid was heated in a DSC machine to 90° C. (past the endotherm between 50-100° C.); to 270° C. (past the endotherm/exotherm around 240° C.); and finally to 330° C. (past the exotherm […]). The residual solid was analyzed by XRD. […] The endotherm between 50-100° C. might be free solvent or hydrate. […] Thus, the exotherm around 290° C. was a re-crystallization event. According to an XRD and DSC overlay, the behavior of Form 2* was similar to Form 2.
Form 13 solid was heated in a DSC chamber to 170° C. (past the endotherm between 50-100° C.), and then scanned by XRD. […] It can be concluded that the endotherm between 50-100° C. is due to bonded water.
Form 13 solid was heated in a DSC chamber to 330° C. (past the endotherm/exotherm around 300° C.), and then scanned by XRD. […] It can be concluded that the endotherm/exotherm is due to melting/crystallization events.

[3] = Form conversion on drying (XRD); conditions: for XRD after drying at 50° C. under vacuum: after air exposure overnight, dried at 50° C. under vacuum
Method: The Form 1 solid was dried at 75° C. under vacuum overnight, and XRD, DSC, and TGA scans were performed. […] However, the DSC scans indicated the absence of endotherm. The loss of the early peak on the DSC scan had no effect on the XRD trace, showing that the endotherm between 50-100° C. on DSC scan was due to the free solvent. The purity of the Form 13 sample was 98.8%; the KF of an undried Form 13 sample was 35.7%. […] Solvates 1 and 2 solids were exposed to air overnight, and then analyzed by XRD. After the analysis, the solids were dried at 50° C. under vacuum, and then analyzed by XRD again.

[4] = Form conversion on exposure to relative humidity / air (XRD); conditions: for XRD after exposure to air overnight: exposed to air overnight
Method: The hydrate lost its water below 30% RH.
Solvates 1 and 2 solids were exposed to air overnight, and then analyzed by XRD. After the analysis, the solids were dried at 50° C. under vacuum, and then analyzed by XRD again.

[5] = Competitive reslurry experiments between polymorph forms (thermodynamic stability); conditions: 3-5 days
Method: In order to find out the thermodynamic stability between the different forms, several competitive reslurry experiments were carried out. Form 1, Form 2, Form 2*, Form 3, Form 4, Form 4*, Form 4**, Form 5, Form 7, Form 8, Form 9, Form 10, Form 11, Form 11*, and Form 13 (10 mg for each) were mixed and slurried in 2 mL of solvent at both RT and 50° C. The solids were slurried for 3-5 days and then analyzed by XRD.

[6] = Competitive reslurry of Form 1, Form 9 and Form 13 (stability of Form 13 vs Form 9); conditions: toluene, IPAc, n-butyl acetate; 3 days at RT and 50° C.
Method: In order to find out the thermodynamic stability between Form 13 and Form 9, several competitive reslurry experiments were carried out. 15 mg of Form 1, Form 9 and Form 13 solids were mixed in 1 mL of toluene, IPAc, and n-butyl acetate, and slurried for 3 days at RT and 50° C.
The residual solid was analyzed by XRD.

[7] = Reslurry experiments in various solvents (polymorph screen)
Method: Reslurry experiments in various solvents were performed. Approximately 30-80 mg of the starting solid (a non-stoichiometric hydrate of Form 1 having between 1% and about 20% by weight water) was slurried in 39 different solvents (pure and binary solvents; the ratio of organic solvent/water (V/V) was 95%/5%) at RT and 50° C. for 5 days. Three solvates, one non-stoichiometric hydrate, and eleven non-solvated forms were identified. […] XRD of both wet and dry samples were scanned (FIG. 12A (dry sample)).

[8] = Solubility of the starting solid by the gravimetric method; conditions: at RT and at 50° C. in all solvents tested except DMF and DMSO
[9] = Acetontrile/water (5% water), RT
[10] = n-Butyl acetate/water (5% water), RT
[11] = Acetontrile/water (5% water), 50° C.
[12] = Heptane/water (5% water), 50° C.
[13] = Toluene/water (5% water), 50° C.
[14] = n-Butanol/water (5% water), 50° C.
[15] = n-Butyl acetate/water (5% water), 50° C.

CC(C)CC(=O)Nc1cncc(-c2ccc3[nH]nc(-c4nc5c(-c6cccc(F)c6)cncc5[nH]4)c3c2)c1 [Form 1, N-(5-(3-(7-(3-fluorophenyl)-3H-imidazo[4,5-c]pyridin-2-yl)-1H-indazol-5-yl)pyridin-3-yl)-3-methylbutanamide]
water absorption (DVS scan) [1]: 17% | form after heating (XRD) ([2]; heated in a DSC chamber to 305° C.): converted to Form 9 | change of XRD scan after drying ([3]; dried at 75° C. under vacuum overnight): no change | form change when exposed to air ([4]; exposed to air): converted to a non-stoichiometric hydrate of Form 1

CC(C)CC(=O)Nc1cncc(-c2ccc3[nH]nc(-c4nc5c(-c6cccc(F)c6)cncc5[nH]4)c3c2)c1 [Form 2, N-(5-(3-(7-(3-fluorophenyl)-3H-imidazo[4,5-c]pyridin-2-yl)-1H-indazol-5-yl)pyridin-3-yl)-3-methylbutanamide]
thermodynamic stability in competitive reslurry ([5]; MeOH, EtOH, and acetone system at both RT and 50° C.): most stable form | form after heating (XRD) ([2]; heated in a DSC machine to 90° C.): did not change | form after heating (XRD) ([2]; heated in a DSC machine to 270° C.): converted to low crystalline solids | form after heating (XRD) ([2]; heated to 330° C.): converted to Form 9

CC(C)CC(=O)Nc1cncc(-c2ccc3[nH]nc(-c4nc5c(-c6cccc(F)c6)cncc5[nH]4)c3c2)c1 [Form 4, N-(5-(3-(7-(3-fluorophenyl)-3H-imidazo[4,5-c]pyridin-2-yl)-1H-indazol-5-yl)pyridin-3-yl)-3-methylbutanamide]
thermodynamic stability in competitive reslurry ([5]; EA at RT and 50° C.): most stable

CC(C)CC(=O)Nc1cncc(-c2ccc3[nH]nc(-c4nc5c(-c6cccc(F)c6)cncc5[nH]4)c3c2)c1 [Form 9, N-(5-(3-(7-(3-fluorophenyl)-3H-imidazo[4,5-c]pyridin-2-yl)-1H-indazol-5-yl)pyridin-3-yl)-3-methylbutanamide]
form before and after the DVS scan ([1]; DVS scan): did not change its form | water absorption (DVS scan) [1]: 0.8% | thermodynamic stability between Form 13 and Form 9 [6]: difficult to tell which one was more stable

CC(C)CC(=O)Nc1cncc(-c2ccc3[nH]nc(-c4nc5c(-c6cccc(F)c6)cncc5[nH]4)c3c2)c1 [Form 12, N-(5-(3-(7-(3-fluorophenyl)-3H-imidazo[4,5-c]pyridin-2-yl)-1H-indazol-5-yl)pyridin-3-yl)-3-methylbutanamide]
Form; Dry [7, 9]: Form 1 | Form; Wet [7, 9]: Form 12 | Form; Dry ([7]; EA/water (5% water), RT): Form 1 | Form; Wet ([7]; EA/water (5% water), RT): Form 12 | Form; Dry ([7]; Heptane/water (5% water), RT): Form 12 | Form; Wet ([7]; Heptane/water (5% water), RT): Form 13 | Form; Dry ([7]; IPAc/water (5% water), RT): Form 1 | Form; Wet ([7]; IPAc/water (5% water), RT): Form 12 | Form; Dry ([7]; MA/water (5% water), 50° C.): Form 4 | Form; Wet ([7]; MA/water (5% water), 50° C.): Form 12 | Form; Dry ([7]; MIBK/water (5% water), RT): Form 1 | Form; Wet ([7]; MIBK/water (5% water), RT): Form 12 | Form; Dry ([7]; MeOH/water (5% water), RT): Form 1 | Form; Wet ([7]; MeOH/water (5% water), RT): Form 12 | Form; Dry ([7]; MtBE/water (5% water), RT): Form 1 | Form; Wet ([7]; MtBE/water (5% water), RT): Form 12 | Form; Dry [7, 10]: Form 12 | Form; Wet [7, 10]: Form 13

CC(C)CC(=O)Nc1cncc(-c2ccc3[nH]nc(-c4nc5c(-c6cccc(F)c6)cncc5[nH]4)c3c2)c1 [Form 13, N-(5-(3-(7-(3-fluorophenyl)-3H-imidazo[4,5-c]pyridin-2-yl)-1H-indazol-5-yl)pyridin-3-yl)-3-methylbutanamide]
water absorption (DVS scan) [1]: 17% | Form; Dry [7, 11]: Form 13 | Form; Wet [7, 11]: Form 13 | Form; Dry ([7]; DCM, 50° C.): Form 13 | Form; Wet ([7]; DCM, 50° C.): Form 13 | Form; Dry ([7]; DCM/water (5% water), 50° C.): Form 1 | Form; Wet ([7]; DCM/water (5% water), 50° C.): Form 13 | Form; Dry ([7]; DCM/water (5% water), RT): Form 1 | Form; Wet ([7]; DCM/water (5% water), RT): Form 13 | Form; Dry ([7]; Heptane, 50° C.): Form 13 | Form; Wet ([7]; Heptane, 50° C.): Form 13 | Form; Dry [7, 12]: Form 1 | Form; Wet [7, 12]: Form 13 | Form; Dry ([7]; Heptane/water (5% water), RT): Form 12 | Form; Wet ([7]; Heptane/water (5% water), RT): Form 13 | Form; Dry ([7]; IPAc/water (5% water), 50° C.): Form 13 | Form; Wet ([7]; IPAc/water (5% water), 50° C.): Form 13 | Form; Dry ([7]; MA/water (5% water), RT): Form 1 | Form; Wet ([7]; MA/water (5% water), RT): Form 13 | Form; Dry ([7]; MIBK/water (5% water), 50° C.): Form 1 | Form; Wet ([7]; MIBK/water (5% water), 50° C.): Form 13 | Form; Dry ([7]; MeOH, RT): Form 1 | Form; Wet ([7]; MeOH, RT): Form 13 | Form; Dry ([7]; MeOH/water (5% water), 50° C.): Form 13 | Form; Wet ([7]; MeOH/water (5% water), 50° C.): Form 13 | Form; Dry ([7]; MtBE/water (5% water), 50° C.): Form 13 | Form; Wet ([7]; MtBE/water (5% water), 50° C.): Form 13 | Form; Dry [7, 13]: Form 13 | Form; Wet [7, 13]: Form 13 | Form; Dry ([7]; Toluene/water (5% water), RT): Form 1 | Form; Wet ([7]; Toluene/water (5% water), RT): Form 13 | Form; Dry [7, 14]: Form 1 | Form; Wet [7, 14]: Form 13 | Form; Dry ([7]; n-Butanol/water (5% water), RT): Form 13 | Form; Wet ([7]; n-Butanol/water (5% water), RT): Form 13 | Form; Dry [7, 15]: Form 1 | Form; Wet [7, 15]: Form 13 | Form; Dry [7, 10]: Form 12 | Form; Wet [7, 10]: Form 13 | Form; Dry ([7]; water, 50° C.): Form 13 | Form; Wet ([7]; water, 50° C.): Form 13 | Form; Dry ([7]; water, RT): Form 1 | Form; Wet ([7]; water, RT): Form 13 | thermodynamic stability between Form 13 and Form 9 [6]: difficult to tell which one was more stable | thermodynamic stability in competitive reslurry ([5]; water at RT and 50° C.): most stable | form after heating (XRD) ([2]; heated in a DSC chamber to 170° C.): converted to Form 1 | form after heating (XRD) ([2]; heated to 330° C.): converted to Form 9 | form change upon drying ([3]; upon drying): converted to Form 1

CC(C)CC(=O)Nc1cncc(-c2ccc3[nH]nc(-c4nc5c(-c6cccc(F)c6)cncc5[nH]4)c3c2)c1 [Solvate 1, N-(5-(3-(7-(3-fluorophenyl)-3H-imidazo[4,5-c]pyridin-2-yl)-1H-indazol-5-yl)pyridin-3-yl)-3-methylbutanamide]
XRD after drying at 50° C. under vacuum [3]: still a low crystallinity solid | XRD after exposure to air overnight [4]: converted to low crystallinity

CC(C)CC(=O)Nc1cncc(-c2ccc3[nH]nc(-c4nc5c(-c6cccc(F)c6)cncc5[nH]4)c3c2)c1 [Solvate 2, N-(5-(3-(7-(3-fluorophenyl)-3H-imidazo[4,5-c]pyridin-2-yl)-1H-indazol-5-yl)pyridin-3-yl)-3-methylbutanamide]
XRD after drying at 50° C. under vacuum [3]: remained the same | XRD after exposure to air overnight [4]: changed a little

CC(C)CC(=O)Nc1cncc(-c2ccc3[nH]nc(-c4nc5c(-c6cccc(F)c6)cncc5[nH]4)c3c2)c1 [non-stoichiometric hydrate of Form 1, N-(5-(3-(7-(3-fluorophenyl)-3H-imidazo[4,5-c]pyridin-2-yl)-1H-indazol-5-yl)pyridin-3-yl)-3-methylbutanamide]
RH below which the hydrate lost its water ([4]; RH): below 30 % RH

CC(C)CC(=O)Nc1cncc(-c2ccc3[nH]nc(-c4nc5c(-c6cccc(F)c6)cncc5[nH]4)c3c2)c1 [starting solid, N-(5-(3-(7-(3-fluorophenyl)-3H-imidazo[4,5-c]pyridin-2-yl)-1H-indazol-5-yl)pyridin-3-yl)-3-methylbutanamide]
Solubility (in words) [8]: low solubility
